These are literature values, as cited in patent publication US20260344672A1, “CROP ENHANCEMENT” (SYNGENTA CROP PROTECTION AG, priority 2023, published 2026).

Each structure is given as a SMILES string.

This series deals with plant. The settings on record: reported in the literature.

On to `N#Cc1nn(-c2c(Cl)cc(C(F)(F)F)cc2Cl)c(N)c1[S+]([O-])C(F)(F)F` (stereo not drawn) [fipronil], for which the “early flowering and grain maturation” value is “stimulate early flowering and grain maturation”; the “leaf area and plant height” value is “increase leaf area and plant height”; the “photosynthetic capacity (plant greenness)” value is “increase photosynthetic capacity (plant greenness)”; the “root system and root hair development” value was “enhance overall root system and root hair development”. The “tiller number and productivity” value is “increase tiller number and productivity”.

With `COC(=O)N(OC)c1ccccc1COc1ccn(-c2ccc(Cl)cc2)n1` [pyraclostrobin], the “plant health, tolerance to environmental stresses” value was “improve plant health e.g. to improve the tolerance to environmental stresses”.
